The test has as its system NL-RLuc virus (recombinant NL4-3 HIV with Renilla Luciferase gene). Briefly: Inhibition of HIV replication (NL-RLuc virus in MT-2 cells, luciferase readout). Type of test: cell-based, Human immunodeficiency virus (HIV). The settings on record: MT2, 120 h. Put shortly: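 MT-2 cells infected with NL4-3-derived virus carrying Renilla luciferase in place of part of nef, grown 5 days with serial compound dilutions in RPMI 1640/10% FBS. Virus growth read as luciferase expression. EC50 from median effect equation, at least 2 experiments.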
For the molecule `Cc1nc(C)c([C@H](OC(C)(C)C)C(=O)O)c(N2CCC(C)(C)CC2)c1-c1ccc2c(c1)CCN(c1cc(N3C[C@@H](C)O[C@@H](C)C3)ncn1)C2` [Example 130, (S)-2-(tert-Butoxy)-2-(5-(2-(6-((2S,6R)-2,6-dimethylmorpholino)pyrimidin-4-yl)-1,2,3,4-tetrahydroisoquinolin-6-yl)-4-(4,4-dimethylpiperidin-1-yl)-2,6-dimethylpyridin-3-yl)acetic Acid], the EC50 came to 5 nM. Under `Cc1nc(C)c([C@H](OC(C)(C)C)C(=O)O)c(N2CCC(C)(C)CC2)c1-c1ccc2c(c1)CCN(c1nccc(N3CCC(C)(C)CC3)n1)C2` [Example 24, (2S)-2-(tert-Butoxy)-2-[4-(4,4-dimethylpiperidin-1-yl)-5-{2-[4-(4,4-dimethylpiperidin-1-yl)pyrimidin-2-yl}-1,2,3,4-tetrahydroisoquinolin-6-yl}-2,6-dimethylpyridin-3-yl]acetic Acid] stands 8 nM; under `Cc1nc(C)c([C@H](OC(C)(C)C)C(=O)O)c(N2CCC(C)(C)CC2)c1-c1ccc2c(c1)CCN(c1nccc(N3CC4CCC(C3)O4)n1)C2` [Example 30, (2S)-2-(tert-Butoxy)-2-[4-(4,4-dimethylpiperidin-1-yl)-2,6-dimethyl-5-[2-(4-{8-oxa-3-azabicyclo[3.2.1]octan-3-yl}pyrimidin-2-yl)-1,2,3,4-tetrahydroisoquinolin-6-yl]pyridin-3-yl]acetic Acid], 1 nM; under `Cc1nc(C)c([C@H](OC(C)(C)C)C(=O)O)c(N2CCC(C)(C)CC2)c1-c1ccc2c(c1)CCN(c1nccc(N3CCS(=O)(=O)CC3)n1)C2` [Example 46, (S)-2-(tert-Butoxy)-2-(4-(4,4-dimethylpiperidin-1-yl)-5-(2-(4-(1,1-dioxidothiomorpholino)pyrimidin-2-yl)-1,2,3,4-tetrahydroisoquinolin-6-yl)-2,6-dimethylpyridin-3-yl)acetic Acid], 9 nM. The figure for `Cc1cn(-c2cc(N3CCc4cc(-c5c(C)nc(C)c([C@H](OC(C)(C)C)C(=O)O)c5N5CCC(C)(C)CC5)ccc4C3)ncn2)cn1` [Example 132, (S)-2-(tert-Butoxy)-2-(4-(4,4-dimethylpiperidin-1-yl)-2,6-dimethyl-5-(2-(6-(4-methyl-1H-imidazol-1-yl)pyrimidin-4-yl)-1,2,3,4-tetrahydroisoquinolin-6-yl)pyridin-3-yl)acetic Acid] is 2 nM; for `Cc1nc(C)c([C@H](OC(C)(C)C)C(=O)O)c(N2CCC(C)(C)CC2)c1-c1ccc2c(c1)CCN(c1cc(N3CCOCC3)cc(F)n1)C2` [Example 87, (S)-2-(tert-Butoxy)-2-(4-(4,4-dimethylpiperidin-1-yl)-5-(2-(6-fluoro-4-morpholinopyridin-2-yl)-1,2,3,4-tetrahydroisoquinolin-6-yl)-2,6-dimethylpyridin-3-yl)acetic Acid] it is 5 nM; for `Cc1nc(C)c([C@H](OC(C)(C)C)C(=O)O)c(N2CCC(C)(C)CC2)c1-c1ccc2c(c1)CCN(c1ccnc(N3CCC(C(C)(C)O)CC3)n1)C2` [Example 71, (S)-2-(tert-Butoxy)-2-(4-(4,4-dimethylpiperidin-1-yl)-5-(2-(2-(4-(2-hydroxypropan-2-yl)piperidin-1-yl)pyrimidin-4-yl)-1,2,3,4-tetrahydroisoquinolin-6-yl)-2,6-dimethylpyridin-3-yl)acetic Acid] it is 4 nM. Under `Cc1nc(C)c([C@H](OC(C)(C)C)C(=O)O)c(N2CCC(C)(C)CC2)c1-c1ccc2c(c1)CCN(c1cccc(C(=O)O)n1)C2` [Example 142, (S)-6-(6-(5-(tert-Butoxy(carboxy)methyl)-4-(4,4-dimethylpiperidin-1-yl)-2,6-dimethylpyridin-3-yl)-3,4-dihydroisoquinolin-2(1H)-yl)picolinic Acid] stands 381 nM; under `Cc1nc(C)c([C@H](OC(C)(C)C)C(=O)O)c(N2CCC(C)(C)CC2)c1-c1ccc2c(c1)CCN(c1ccnc(N3C4COCC3COC4)n1)C2` [Example 34, (2S)-2-(tert-Butoxy)-2-[4-(4,4-dimethylpiperidin-1-yl)-5-[2-(2-{3,7-dioxa-9-azabicyclo[3.3.1]nonan-9-yl}pyrimidin-4-yl)-1,2,3,4-tetrahydroisoquinolin-6-yl]-2,6-dimethylpyridin-3-yl]acetic Acid], 5 nM; under `CCOc1cc(N2CCc3cc(-c4c(C)nc(C)c([C@H](OC(C)(C)C)C(=O)O)c4N4CCC(C)(C)CC4)ccc3C2)nc(C)n1` [Example 65, (S)-2-(tert-Butoxy)-2-(4-(4,4-dimethylpiperidin-1-yl)-5-(2-(6-ethoxy-2-methylpyrimidin-4-yl)-1,2,3,4-tetrahydroisoquinolin-6-yl)-2,6-dimethylpyridin-3-yl)acetic Acid], 19 nM. In the case of `Cc1ccc2c(n1)oc1c(N3CCc4cc(-c5cnc(C)c([C@H](OC(C)(C)C)C(=O)O)c5N5CCC(C)(C)CC5)ccc4C3)ncnc12` [Example 47, (2S)-2-(tert-Butoxy)-2-[4-(4,4-dimethylpiperidin-1-yl)-2-methyl-5-(2-{11-methyl-8-oxa-3,5,10-triazatricyclo[7.4.0.0^2,7]trideca-1(9),2,4,6,10,12-hexaen-6-yl}1,2,3,4tetrahydroisoquinolin-6-yl)pyridin-3-yl]acetic Acid], the EC50 stood at 1 nM.

For the molecule `Cc1ncc(-c2ccc3c(c2)CCN(c2nccc(-c4cnccn4)n2)C3)c(N2CCC(C)(C)CC2)c1[C@H](OC(C)(C)C)C(=O)O` [Example 147, (S)-2-(tert-Butoxy)-2-(4-(4,4-dimethylpiperidin-1-yl)-2-methyl-5-(2-(4-(pyrazin-2-yl)pyrimidin-2-yl)-1,2,3,4-tetrahydroisoquinolin-6-yl)pyridin-3-yl)acetic Acid], the EC50 was determined as 2 nM. With `Cc1nc(C)c([C@H](OC(C)(C)C)C(=O)O)c(N2CCC(C)(C)CC2)c1-c1ccc2c(c1)CCN(c1ncnc(N3CCOCC3)n1)C2` [Example 60, (S)-2-(tert-Butoxy)-2-(4-(4,4-dimethylpiperidin-1-yl)-2,6-dimethyl-5-(2-(4-morpholino-1,3,5-triazin-2-yl)-1,2,3,4-tetrahydroisoquinolin-6-yl)pyridin-3-yl)acetic Acid], the half-maximal effective concentration (EC50) worked out at 0.6 nM. The figure for `Cc1nc(C)c([C@H](OC(C)(C)C)C(=O)O)c(N2CCC(C)(C)CC2)c1-c1ccc2c(c1)CCN(c1cc(N3CCC(N4CCOCC4)CC3)ncn1)C2` [Example 134, (S)-2-(tert-Butoxy)-2-(4-(4,4-dimethylpiperidin-1-yl)-2,6-dimethyl-5-(2-(6-(4-morpholinopiperidin-1-yl)pyrimidin-4-yl)-1,2,3,4-tetrahydroisoquinolin-6-yl)pyridin-3-yl)acetic Acid] is 4 nM; for `Cc1cccc(Cl)c1CN1CCc2cc(-c3c(O)nc(C)c([C@H](OC(C)(C)C)C(=O)O)c3N3CCC(C)(C)CC3)ccc2C1` [Example 1, (S)-2-(tert-Butoxy)-2-(5-(2-(2-chloro-6-methylbenzyl)-1,2,3,4-tetrahydroisoquinolin-6-yl)-4-(4,4-dimethylpiperidin-1-yl)-2-methyl-6-oxo-1,6-dihydropyridin-3-yl)acetic Acid] it is 10 nM; for `Cc1nc(N2CCc3cc(-c4c(C)nc(C)c([C@H](OC(C)(C)C)C(=O)O)c4N4CCC(C)(C)CC4)ccc3C2)c2oc3ccccc3c2n1` [Example 128, (S)-2-(tert-Butoxy)-2-(4-(4,4-dimethylpiperidin-1-yl)-2,6-dimethyl-5-(2-(2-methylbenzofuro[3,2-d]pyrimidin-4-yl)-1,2,3,4-tetrahydroisoquinolin-6-yl)pyridin-3-yl)acetic Acid] it is 2 nM. The figure for `CC1(C)CCN(c2c(-c3ccc4c(c3)CCN(c3nccc(-c5cnccn5)n3)C4)cnc(Cl)c2[C@H](OC(C)(C)C)C(=O)O)CC1` [Example 153, (S)-2-(tert-Butoxy)-2-(2-chloro-4-(4,4-dimethylpiperidin-1-yl)-5-(2-(4-(pyrazin-2-yl)pyrimidin-2-yl)-1,2,3,4-tetrahydroisoquinolin-6-yl)pyridin-3-yl)acetic Acid] is 2 nM. Under `CC1(C)CCN(c2c(-c3ccc4c(c3)CCN(c3nccc(N5CCOCC5)n3)C4)c(CN3CCC4(CCC4)CC3)nc(Cl)c2[C@H](OC(C)(C)C)C(=O)O)CC1` [Example 150, (S)-2-(6-((7-Azaspiro[3.5]nonan-7-yl)methyl)-2-chloro-4-(4,4-dimethylpiperidin-1-yl)-5-(2-(4-morpholinopyrimidin-2-yl)-1,2,3,4-tetrahydroisoquinolin-6-yl)pyridin-3-yl)-2-(tert-butoxy)acetic Acid] stands 0.3 nM; under `Cc1cccc(Cl)c1CN1CCc2cc(-c3c(CNCCCCCCc4ccccc4)nc(C)c([C@H](OC(C)(C)C)C(=O)O)c3N3CCC(C)(C)CC3)ccc2C1` [Example 157, (S)-2-(tert-Butoxy)-2-(5-(2-(2-chloro-6-methylbenzyl)-1,2,3,4-tetrahydroisoquinolin-6-yl)-4-(4,4-dimethylpiperidin-1-yl)-2-methyl-6-(((6-phenylhexyl)amino)methyl)pyridin-3-yl)acetic Acid], 340 nM; under `Cc1cccc(Cl)c1CN1CCc2cc(-c3c(NCc4ccn[nH]4)nc(C)c([C@H](OC(C)(C)C)C(=O)O)c3N3CCC(C)(C)CC3)ccc2C1` [Example 6, (S)-2-(6-(((1H-Pyrazol-5-yl)methyl)amino)-5-(2-(2-chloro-6-methylbenzyl)-1,2,3,4-tetrahydroisoquinolin-6-yl)-4-(4,4-dimethylpiperidin-1-yl)-2-methylpyridin-3-yl)-2-(tert-butoxy)acetic Acid], 18 nM. `Cc1nc(C)c([C@H](OC(C)(C)C)C(=O)O)c(N2CCC(C)(C)CC2)c1-c1ccc2c(c1)CCN(c1ccnc(N3C[C@@H](C)O[C@@H](C)C3)n1)C2` [Example 27, (2S)-2-(tert-Butoxy)-2-[5-(2-{2-[(2R,6S)-2,6-dimethylmorpholin-4-yl]pyrimidin-4-yl}-1,2,3,4-tetrahydroisoquinolin-6-yl)-4-(4,4-dimethylpiperidin-1-yl)-2,6-dimethylpyridin-3-yl]acetic Acid]: the EC50 worked out at 2 nM.
